Results on twelve molecules are retold here after patent publication US11427548B2 (Arvinas Operations, Inc., priority 2015, dated 2022).

The test addresses T1, Androgen Receptor (Homo sapiens, UniProt P10275).
T1 construct: endogenous in cells; host or cells: VCaP cells
T1 sequence (P10275 1-920): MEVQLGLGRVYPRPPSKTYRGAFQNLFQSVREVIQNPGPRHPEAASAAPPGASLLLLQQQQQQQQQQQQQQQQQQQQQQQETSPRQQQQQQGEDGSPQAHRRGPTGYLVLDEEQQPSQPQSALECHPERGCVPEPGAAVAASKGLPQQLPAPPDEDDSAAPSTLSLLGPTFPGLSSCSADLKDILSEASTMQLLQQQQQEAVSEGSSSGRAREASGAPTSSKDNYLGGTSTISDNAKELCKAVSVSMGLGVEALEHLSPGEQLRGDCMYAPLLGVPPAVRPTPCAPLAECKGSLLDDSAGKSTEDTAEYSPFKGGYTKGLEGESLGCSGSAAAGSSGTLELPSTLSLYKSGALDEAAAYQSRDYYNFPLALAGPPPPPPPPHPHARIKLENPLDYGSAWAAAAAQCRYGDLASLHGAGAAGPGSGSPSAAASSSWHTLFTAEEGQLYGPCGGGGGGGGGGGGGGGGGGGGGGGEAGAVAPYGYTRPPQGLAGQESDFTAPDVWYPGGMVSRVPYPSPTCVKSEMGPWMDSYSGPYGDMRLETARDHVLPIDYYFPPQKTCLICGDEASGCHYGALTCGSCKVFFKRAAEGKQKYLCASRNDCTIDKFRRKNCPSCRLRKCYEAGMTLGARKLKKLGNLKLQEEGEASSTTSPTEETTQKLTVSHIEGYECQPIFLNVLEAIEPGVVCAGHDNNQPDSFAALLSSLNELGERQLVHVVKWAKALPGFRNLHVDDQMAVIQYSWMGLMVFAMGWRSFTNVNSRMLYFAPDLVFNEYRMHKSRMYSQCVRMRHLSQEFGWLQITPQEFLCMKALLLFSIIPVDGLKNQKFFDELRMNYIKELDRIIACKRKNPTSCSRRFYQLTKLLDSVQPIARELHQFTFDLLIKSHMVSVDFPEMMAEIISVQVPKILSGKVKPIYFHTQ
Nature of the test: Androgen Receptor ELISA assay (PathScan AR ELISA) in VCaP cells: AR degradation, Dmax and DC50. To be noted: for Dmax: VCaP, read-out: VCaP Dmax (%); for DC50: read-out: VCaP DC50, concentration that caused 50% Androgen Receptor degradation, VCaP cells (Table 32). It counts as cell-based. The essentials:
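VCaP cells, 30,000/well, grown ≥3 days in phenol red-free RPMI with 5% charcoal-stripped FBS; compound added in 0.1% DMSO with 0.1 nM R1881, 7 half-log doses, 24 h. Lysate AR quantified by PathScan sandwich ELISA, HRP/TMB read at 450 nm, giving DC50 and Dmax.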
Background: An ELISA detects its analyte on a solid surface through an enzyme-linked reagent.

A word on the Dmax: it is the largest share of the target that was removed. In general, DC50 refers to the midpoint of the concentration-degradation curve.

As to `Cc1ncoc1-c1ccc(CNC(=O)[C@@H]2C[C@@H](O)CN2C(=O)[C@@H](NC(=O)COCCCCOc2ccc(-c3ccc(N4C(=S)N(c5ccc(C#N)c(Cl)c5)C(=O)C4(C)C)c(F)c3)cc2)C(C)(C)C)cc1` [Example 100, (2S,4R)-1-[(2S)-2-{2-[4-(4-{4-[3-(3-chloro-4-cyanophenyl)-5,5-dimethyl-4-oxo-2-sulfanylideneimidazolidin-1-yl]-3-fluorophenyl}phen-oxy)butoxy]acetamido}-3,3-dimethylbutanoyl]-4-hydroxy-N-{[4-(4-methyl-1,3-oxazol-5-yl)phenyl]methyl}pyrrolidine-2-carboxamide], the Dmax was above 71% and the DC50 is below 50 nM.

As for `Cc1ncoc1-c1ccc([C@H](C)NC(=O)[C@@H]2C[C@@H](O)CN2C(=O)[C@@H](NC(=O)COCCCCOc2ccc(-c3ccc(N4C(=S)N(c5ccc(C#N)c(C(F)(F)F)c5)C(=O)C4(C)C)cc3)cc2)C(C)(C)C)cc1` [Example 101, (2S,4R)-1-[(2S)-2-(2-{4-[4-(4-{3-[4-cyano-3-(trifluoromethyl)phenyl]-5,5-dimethyl-4-oxo-2-sulfanylideneimidazolidin-1-yl}phenyl)phenoxy]butoxy}acetamido)-3,3-dimethylbutanoyl]-4-hydroxy-N-[(1S)-1-[4-(4-methyl-1,3-oxazol-5-l)phenyl]ethyl]pyrrolidine-2-carboxamide], the Dmax is above 71% and the DC50 is below 50 nM.

With `Cc1ncsc1-c1ccc(CNC(=O)[C@@H]2C[C@@H](O)CN2C(=O)[C@@H](NC(=O)COCCCCOc2ccc(-c3ccc(N4C(=S)N(c5ccc(C#N)c(C(F)(F)F)c5)C(=O)C4(C)C)cn3)cc2)C(C)(C)C)cc1` [Example 102, (2S,4R)-1-[(2S)-2-(2-{4-[4-(5-{3-[4-cyano-3-(trifluoromethyl)phenyl]-5,5-dimethyl-4-oxo-2-sulfanylideneimidazolidin-1-yl}pyridin-2-yl)phenoxy]butoxy}acetamido)-3,3-dimethylbutanoyl]-4-hydroxy-N-{[4-(4-methyl-1,3-thiazol-5-yl)phenyl]methyl}pyrrolidine-2-carboxamide], the Dmax was above 71% and the DC50 was below 50 nM.

Take `Cc1ncsc1-c1ccc(CNC(=O)[C@@H]2C[C@@H](O)CN2C(=O)[C@@H](NC(=O)COCCCCNc2ccc(-c3ccc(N4C(=S)N(c5ccc(C#N)c(C(F)(F)F)c5)C(=O)C4(C)C)cc3)cc2)C(C)(C)C)cc1` [Example 103, (2S,4R)-1-[(2S)-2-[2-(4-{[4-(4-{3-[4-cyano-3-(trifluoromethyl)phenyl]-5,5-dimethyl-4-oxo-2-sulfanylideneimidazolidin-1-yl}phenyl)phen-yl]amino}butoxy)acetamido]-3,3-dimethylbutanoyl]-4-hydroxy-N-{[4-(4-methyl-1,3-thiazol-5-yl)phenyl]methyl}pyrrolidine-2-carboxamide]: the Dmax is above 71% and the DC50 was below 50 nM.

Take `Cn1cncc1-c1ccc(CNC(=O)[C@@H]2C[C@@H](O)CN2C(=O)[C@@H](NC(=O)COCCCCOc2ccc(-c3ccc(N4C(=S)N(c5ccc(C#N)c(C(F)(F)F)c5)C(=O)C4(C)C)cc3)cc2)C(C)(C)C)cc1` [Example 104, (2S,4R)-1-[(2S)-2-(2-{4-[4-(4-{3-[4-cyano-3-(trifluoromethyl)phenyl]-5,5-dimethyl-4-oxo-2-sulfanylideneimidazolidin-1-yl}phenyl)phenoxy]butoxy}acetamido)-3,3-dimethylbutanoyl]-4-hydroxy-N-{[4-(1-methyl-1H-imidazol-5-yl)phenyl]methyl}pyrrolidine-2-carboxamide]: the Dmax is above 71% and the DC50 is below 50 nM.

Regarding `CC(C)(C)[C@H](NC(=O)COCCCCOc1ccc(-c2ccc(N3C(=S)N(c4ccc(C#N)c(C(F)(F)F)c4)C(=O)C3(C)C)cc2)cc1)C(=O)N1C[C@H](O)C[C@H]1C(=O)NCc1ccc(-c2ocnc2Cl)cc1` [Example 105, (2S,4R)-N-{[4-(4-chloro-1,3-oxazol-5-yl)phenyl]methyl}-1-[(2S)-2-(2-{4-[4-(4-{3-[4-cyano-3-(trifluoromethyl)phenyl]-5,5-dimethyl-4-oxo-2-sulfanylideneimidazolidin-1-yl}phenyl)phenoxy]butoxy}acetamido)-3,3-dimethylbutanoyl]-4-hydroxypyrrolidine-2-carboxamide], the maximal degradation (Dmax) was 51 to 70% and the DC50 was 51 to 500 nM.

`CC(C)(C)[C@H](NC(=O)COCCCCOc1ccc(-c2ccc(N3C(=S)N(c4ccc(C#N)c(Cl)c4)C(=O)C3(C)C)c(F)c2)cc1)C(=O)N1C[C@H](O)C[C@H]1C(=O)NCc1ccc(-c2cnco2)cc1` [Example 106, (2S,4R)-1-[(2S)-2-{2-[4-(4-{4-[3-(3-chloro-4-cyanophenyl)-5,5-dimethyl-4-oxo-2-sulfanylideneimidazolidin-1-yl]-3-fluorophenyl}phen-oxy)butoxy]acetamido}-3,3-dimethylbutanoyl]-4-hydroxy-N-{[4-(1,3-oxazol-5-yl)phenyl]methyl}pyrrolidine-2-carboxamide]: the Dmax was above 71% and the DC50 was below 50 nM.

As to `Cc1ncsc1-c1ccc(CNC(=O)[C@@H]2C[C@@H](O)CN2C(=O)[C@@H](NC(=O)COCCCCOc2ccc(-c3ccc(N4C(=S)N(c5ccc(C#N)c(Cl)c5)C(=O)C4(C)C)c(F)c3)cc2)C(C)(C)C)cc1` [Example 107, (2S,4R)-1-[(2S)-2-{2-[4-(4-{4-[3-(3-chloro-4-cyanophenyl)-5,5-dimethyl-4-oxo-2-sulfanylideneimidazolidin-1-yl]-3-fluorophenyl}phen-oxy)butoxy]acetamido}-3,3-dimethylbutanoyl]-4-hydroxy-N-{[4-(4-methyl-1,3-thiazol-5-yl)phenyl]methyl}pyrrolidine-2-carboxamide], the Dmax was above 71% and the DC50 is below 50 nM.

On to `CC(C)(C)[C@H](NC(=O)COCCCCOc1ccc(-c2ccc(N3C(=S)N(c4ccc(C#N)c(Cl)c4)C(=O)C3(C)C)c(F)c2)cc1)C(=O)N1C[C@H](O)C[C@H]1C(=O)NCc1ccc(-c2cncs2)cc1` [Example 108, (2S,4R)-1-[(2S)-2-{2-[4-(4-{4-[3-(3-chloro-4-cyanophenyl)-5,5-dimethyl-4-oxo-2-sulfanylideneimidazolidin-1-yl]-3-fluorophenyl}phen-oxy)butoxy]acetamido}-3,3-dimethylbutanoyl]-4-hydroxy-N-{[4-(1,3-thiazol-5-yl)phenyl]methyl}pyrrolidine-2-carboxamide], for which the maximal degradation (Dmax) was above 71% and the DC50 is below 50 nM.

Turning to `CC(C)(C)[C@H](NC(=O)COCCCCOc1ccc(-c2ccc(N3C(=S)N(c4ccc(C#N)c(Cl)c4)C(=O)C3(C)C)cc2F)cc1)C(=O)N1C[C@H](O)C[C@H]1C(=O)NCc1ccc(-c2cnco2)cc1` [Example 109, (2S,4R)-1-[(2S)-2-{2-[4-(4-{4-[3-(3-chloro-4-cyanophenyl)-5,5-dimethyl-4-oxo-2-sulfanylideneimidazolidin-1-yl]-2-fluorophenyl}phen-oxy)butoxy]acetamido}-3,3-dimethylbutanoyl]-4-hydroxy-N-{[4-(1,3-oxazol-5-yl)phenyl]methyl}pyrrolidine-2-carboxamide], the Dmax is above 71% and the DC50 was below 50 nM.

With `Cc1ncoc1-c1ccc(CNC(=O)[C@@H]2C[C@@H](O)CN2C(=O)[C@@H](NC(=O)COCCCCOc2ccc(-c3ccc(N4C(=S)N(c5ccc(C#N)c(Cl)c5)C(=O)C4(C)C)cc3)cc2)C(C)(C)C)cc1` [Example 110, (2S,4R)-1-[(2S)-2-{2-[4-(4-{4-[3-(3-chloro-4-cyanophenyl)-5,5-dimethyl-4-oxo-2-sulfanylideneimidazolidin-1-yl]phenyl}phenoxy)butoxy]acetamido}-3,3-dimethylbutanoyl]-4-hydroxy-N-{[4-(4-methyl-1,3-oxazol-5-yl)phenyl]methyl}pyrrolidine-2-carboxamide], the Dmax was above 71% and the DC50 was below 50 nM.

Consider `CC(C)(C)[C@H](NC(=O)COCCCCOc1ccc(-c2ccc(N3C(=S)N(c4ccc(C#N)c(Cl)c4)C(=O)C3(C)C)cc2)cc1)C(=O)N1C[C@H](O)C[C@H]1C(=O)NCc1ccc(-c2cncs2)cc1` [Example 111, (2S,4R)-1-[(2S)-2-{2-[4-(4-{4-[3-(3-chloro-4-cyanophenyl)-5,5-dimethyl-4-oxo-2-sulfanylideneimidazolidin-1-yl]phenyl}phenoxy)butoxy]acetamido}-3,3-dimethylbutanoyl]-4-hydroxy-N-{[4-(1,3-thiazol-5-yl)phenyl]methyl}pyrrolidine-2-carboxamide], for which the Dmax is above 71% and the DC50 was below 50 nM.
